Key:
[1] = target: EstFA (Ferroplasma acidiphilum, UniProt Q2PCE5); assay: Enantioselectivity of EstFA towards chiral esters and lactones; assay type: biochemical; conditions: for % c / % e.e.: 100 mM citrate buffer pH 2.0, 5 μg EstFA, 10 hours; for E: enantioselectivity
Method: For an estimation of enantioselectivity of EstFA towards chiral esters and lactones, a number of primary and secondary alcohols as well as carboxylic acids and lactones were hydrolysed.
The above substrate specificities were tested in 96-well plates, using 100 mM citrate buffer (pH 2.0) in the presence of 5 μg pure EstFA. For the substrate, the concentrations between 10 nM and 10 mM were chosen. Progress of the reaction was followed by spectrophotometry using p-nitrophenol propionate as an indicator. The reaction was stopped after 10 hours by adjusting the pH to 8.0 by adding sodium hydroxide from a 100 mM stock solution and phenol red (0.8 mM) as a pH indicator. […] Ester hydrolysis of enantiomerically pure esters was measured colorimetrically in 5.0 mM EPPS buffer (N-(2-hydroxyethyl) piperazine-N′-(3′-propanesulfonic acid) at pH 8.0 and phenol red after termination of the reaction.

[2] = system: LigFA (acidic ligase); assay: Effect of cations and inhibitors on recombinant LigFA activity; assay type: biochemical, Ferroplasma acidiphilum
Method: (§1) The enzymes used for the tests were heterologously expressed in E. coli using genomic coding sequences obtained from Ferroplasma acidiphilum. The acidic enzymes according to the invention were expressed in E. coli using the genomiccoding sequence for the respective enzyme from Ferroplasma acidiphilum, which are described in detail below. For enzymatic conversions, reaction conditions were in 100 mM sodium acetate buffer, 100 mM citrate buffer, 100 mM HEPES buffer for 2 minutes at 30° C., using p-nitrophenol propionate as the substrate for esterase, starch in the case of glycosidases, and HindIII digested λ DNA for ligase.

[3] = system: EstFA (acidic esterase); assay: Effect of cations and inhibitors on recombinant EstFA activity; assay type: biochemical, Ferroplasma acidiphilum; parameters: substitution of Fe^2+ in EstFA: dose or concentration left out as unconfirmed; conditions: for substitution of Fe^2+ in EstFA: as chloride salts
Method: The enzymes used for the tests were heterologously expressed in E. coli using genomic coding sequences obtained from Ferroplasma acidiphilum.
The acidic enzymes according to the invention were expressed in E. coli using the genomiccoding sequence for the respective enzyme from Ferroplasma acidiphilum, which are described in detail below. For enzymatic conversions, reaction conditions were in 100 mM sodium acetate buffer, 100 mM citrate buffer, 100 mM HEPES buffer for 2 minutes at 30° C., using p-nitrophenol propionate as the substrate for esterase, starch in the case of glycosidases, and HindIII digested λ DNA for ligase.

[4] = system: αGluFA (acidic glucosidase); assay: Effect of cations and inhibitors on recombinant αGluFA activity; assay type: biochemical, Ferroplasma acidiphilum
Method: as §1

[5] = target: αGluFA (Ferroplasma acidiphilum, UniProt Q5K3Q3); assay: Hydrolysis of glycosidic substrates by αGluFA; assay type: biochemical; conditions: pH 3.0, 50° C., 100 μM FeCl2
αGluFA, sequence (Q5K3Q3 entry or part of it): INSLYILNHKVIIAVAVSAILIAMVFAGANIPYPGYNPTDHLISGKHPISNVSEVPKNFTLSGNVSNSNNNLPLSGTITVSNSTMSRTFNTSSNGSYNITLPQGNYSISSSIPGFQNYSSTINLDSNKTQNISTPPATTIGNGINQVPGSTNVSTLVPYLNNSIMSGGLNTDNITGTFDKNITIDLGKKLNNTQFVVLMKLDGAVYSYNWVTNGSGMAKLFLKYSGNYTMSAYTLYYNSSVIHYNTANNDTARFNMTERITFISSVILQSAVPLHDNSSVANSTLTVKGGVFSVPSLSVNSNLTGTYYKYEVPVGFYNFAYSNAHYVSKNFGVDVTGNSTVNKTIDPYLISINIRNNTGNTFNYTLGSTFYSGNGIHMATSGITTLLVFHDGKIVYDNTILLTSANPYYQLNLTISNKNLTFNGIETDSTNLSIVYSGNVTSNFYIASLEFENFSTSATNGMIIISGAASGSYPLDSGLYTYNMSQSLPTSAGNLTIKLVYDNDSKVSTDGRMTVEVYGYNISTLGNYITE
Method: A variety of glycosidic substrates were examined for hydrolysis by αGluFA and kinetic constants were determined. For the assay, heterologously expressed αGluFA was incubated in 100 mM sodium citrate buffer, pH 3.0, containing 1% substrate, 100 μM FeCl2 and 5 μg αGluFA. […] Analysis was done by HPLC. Sample blanks were used for correction of spontaneous release of reducing sugar.
As substrates, sucrose, starch, amylose, amylopectin, pullulan and dextrin were used, the release of reducing sugars could also be determined by the dinitrosalicylic acid method, i.e. adding dinitrosalicylic acid solution to the reaction mixture, heating to 85° C. for 30 minutes, dilution with water and measuring absorbance at 450 nm. Activity towards p-nitrophenol α/β diglucopyranoside could be measured spectrophotometrically by following the absorbance at 346 nm using a molar extinction coefficient of 4800.

EstFA, sequence (Q2PCE5 entry or part of it): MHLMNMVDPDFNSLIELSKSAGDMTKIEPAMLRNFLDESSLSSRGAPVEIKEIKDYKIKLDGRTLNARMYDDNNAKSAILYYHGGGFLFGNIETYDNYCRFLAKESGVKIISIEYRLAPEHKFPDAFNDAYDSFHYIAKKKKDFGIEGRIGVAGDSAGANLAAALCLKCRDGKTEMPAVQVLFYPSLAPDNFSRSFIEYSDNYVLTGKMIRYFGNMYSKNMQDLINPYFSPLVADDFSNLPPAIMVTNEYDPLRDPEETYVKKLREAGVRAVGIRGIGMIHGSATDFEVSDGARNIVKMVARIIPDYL

| Compound | % c [1] [%] | % e.e. [1] [%] | E [1] | Activity (%) LigFA ([2]; additive 10 mM) [%] | Activity (%) LigFA ([2]; additive 125 mM) [%] | Activity (%) EstFA ([3]; additive 10 mM) [%] | Activity (%) EstFA ([3]; additive 125 mM) [%] | Activity (%) αGluFα ([4]; additive 10 mM) [%] | Activity (%) αGluFα ([4]; additive 125 mM) [%] | also measured |
| --- | --- | --- | --- | --- | --- | --- | --- | --- | --- | --- |
| COC(=O)C(C)CO (centres unmarked) [methyl-3-hydroxy-2-methylpropionate] | 30.8 | 98 | 116.2 |  |  |  |  |  |  |  |
| [Ca+2] [Ca^2+] |  |  |  | 126.2 | 81.6 | 116.3 | 100.8 | 91.2 | 74.1 | substitution of Fe^2+ in EstFA [3]: could not substitute Fe^2+ |
| CC1(C)COC(=O)C1O (centres unmarked) [pantolactone] | 10.06 | 39.36 | 2.40 |  |  |  |  |  |  |  |
| OCCS [mercaptoethanol] |  |  |  |  |  |  |  |  |  | Activity (%) EstFA ([3]; additive 1 mM): 55% |
| dextrin |  |  |  |  |  |  |  |  |  | Kcat [5]: 93.0 ± 11^ s^−1; Km [5]: 0.221 ± 0.03 mg/mL |
| CCCC(=O)OCC1COC(C)(C)O1 (centres unmarked) [solketal butyrate] | 29.0 | 74.46 | 9.2 |  |  |  |  |  |  |  |
| amylose |  |  |  |  |  |  |  |  |  | Kcat [5]: 126.0 ± 7.5 s⁻¹; Km [5]: 7.49 ± 0.88 mg/mL |
| [Sr+2] [Sr^2+] |  |  |  | 90.7 | 20.2 | 102.1 | 106.5 | 98.0 | 71.3 |  |
| soluble starch |  |  |  |  |  |  |  |  |  | Kcat [5]: 94.0 ± 11^ s^−1; Km [5]: 0.11 ± 0.02 mg/mL |
| [Co+2] [Co^2+] |  |  |  | 102.5 | 88.7 | 55.2 | 68.3 | 72.0 | 82.8 | substitution of Fe^2+ in EstFA [3]: could not substitute Fe^2+ |
| Triton X-100 |  |  |  |  |  |  |  |  |  | Activity (%) LigFA ([2]; additive 1%): 62.3%; Activity (%) LigFA ([2]; additive 3%): 9.0%; Activity (%) EstFA ([3]; additive 1%): 74.6%; Activity (%) EstFA ([3]; additive 3%): 43.5%; Activity (%) αGluFα ([4]; additive 1%): 95.7%; Activity (%) αGluFα ([4]; additive 3%): 47.4% |
| pullulan |  |  |  |  |  |  |  |  |  | Kcat [5]: 2.8 ± 0.1 s⁻¹; Km [5]: 11.0 ± 0.1 mg/mL |
| CCCCCCCCCCCCOS(=O)(=O)[O-].[Na+] [SDS] |  |  |  | 32.6 |  | 75.2 |  | 2.4 |  | Activity (%) LigFA ([2]; additive 50 mM): 27.5%; Activity (%) EstFA ([3]; additive 50 mM): 47.3%; Activity (%) αGluFα ([4]; additive 50 mM): 0.5% |
| [Mg+2] [Mg^2+] |  |  |  | 157.0 | 126.8 | 106.1 | 116.8 | 92.2 | 64.7 | substitution of Fe^2+ in EstFA [3]: could not substitute Fe^2+ |
| COC(=O)[C@@H](N)Cc1c[nH]c2ccccc12 [tryptophane methylester] | 4.33 | 2.12 | 1.1 |  |  |  |  |  |  |  |
| CC(=O)OC1CC(C)CCC1C(C)C (centres unmarked) [menthyl acetate] | 42.2 | 78.4 | 14.7 |  |  |  |  |  |  |  |
| COC(=O)[C@H](C)N [alanine methylester] | 8.71 | 2.5 | 3.8 |  |  |  |  |  |  |  |
| COC(=O)CC(C)O (centres unmarked) [methyl-3-hydroxybutyrate] | 26.2 | 98 | 42.8 |  |  |  |  |  |  |  |
| CCCC(=O)OC(C)c1ccccc1 (centres unmarked) [1-phenyl ethylbutyrate] | 36.2 | 33.7 | 2.4 |  |  |  |  |  |  |  |
| [Li+] [Li^+] |  |  |  | 101.6 | 107.9 | 100.2 | 48.0 | 107.2 | 69.4 |  |
| [Cl][Ni][Cl] [nickel] |  |  |  |  |  |  |  |  |  | substitution of Fe^2+ in EstFA [3]: could not substitute Fe^2+ |
| N [NH4^+] |  |  |  | 107.2 | 108.2 | 85.2 | 97.1 | 103.8 | 58.8 |  |
| [Na+] [Na^+] |  |  |  | 71.1 | 100 | 102.8 | 91.2 | 86.3 | 74.0 |  |
| [Mn+2] [manganese] |  |  |  |  |  |  |  |  |  | substitution of Fe^2+ in EstFA [3]: could not substitute Fe^2+ |
| O=C1CCC(CO)O1 (centres unmarked) [dihydro-5-hydroxymethyl-2(3H)-furanone] | 39.3 | 88.6 | 29.7 |  |  |  |  |  |  |  |
| COC(=O)C(C)O (centres unmarked) [methyl lactate] | 3.4 | 2.38 | 1.1 |  |  |  |  |  |  |  |
| O=C(O)CN(CCN(CC(=O)O)CC(=O)O)CC(=O)O [EDTA] |  |  |  | 17.2 | 7.0 | 16.0 | 9.5 | 10.6 | 9.4 | effect of complexing Fe^2+ on EstFA activity ([3]; added EDTA): inhibited the activity of EstFA in a reversible manner |
| [Zn+2] [Zn^2+] |  |  |  | 5.3 | 10.2 | 57.8 | 4.6 | 1.1 | 16.2 |  |
| [K+] [K^+] |  |  |  | 129.9 | 93.8 | 108.5 | 115.7 | 86.0 | 76.3 |  |
| amylopectin |  |  |  |  |  |  |  |  |  | Kcat [5]: 89 ± 10.5 s⁻¹; Km [5]: 1.05 ± 0.19 mg/mL |
